Experimental data reported in ChEMBL document CHEMBL4325823 (Medchemcomm, 2018).
Each block holds one compound with its values, some of them ahead of it.

Key:
[1] = Inhibition of bacterial Class A beta-lactamase; design: species or system Bacteria
[2] = Inhibition of bacterial beta lactamase class C; design: species or system Bacteria
[3] = Inhibition of bacterial NDM1 expressed in Escherichia coli BL21(DE3) using nitrocefin as substrate measured after 5 to 10 mins; design: species or system Bacteria
[4] = Inhibition of bacterial VIM2 expressed in Escherichia coli BL21(DE3) using nitrocefin as substrate measured after 5 to 10 mins; design: species or system Bacteria
[5] = Binding affinity to Zn2+ by isothermal calorimetric method
[6] = Inhibition of bacterial NDM1; design: species or system Bacteria
[7] = system: Klebsiella pneumoniae ATCC BAA-1705; assay: Inhibition of beta lactamase KPC in Klebsiella pneumoniae BAA-1705 assessed as potentiation of meropenem-induced antibacterial activity by measuring fold reduction in meropenem MIC90 by checkerboard microdilution assay relative to meropenem alone
[8] = system: Klebsiella pneumoniae ATCC BAA-1705; assay: Inhibition of beta lactamase KPC in Klebsiella pneumoniae BAA-1705 assessed as potentiation of meropenem-induced antibacterial activity by measuring fold reduction in meropenem MIC50 by checkerboard microdilution assay relative to meropenem alone
[9] = system: Enterobacteriaceae; assay: Inhibition of beta lactamase KPC in Enterobacteriaceae assessed as potentiation of meropenem-induced antibacterial activity by measuring meropenem MIC by broth microdilution method
[10] = system: Enterobacteriaceae; assay: Inhibition of beta lactamase SHV in Enterobacteriaceae assessed as potentiation of ceftazidime-induced antibacterial activity by measuring ceftazidime MIC by broth microdilution method
[11] = system: Pseudomonas aeruginosa; assay: Inhibition of beta lactamase in Pseudomonas aeruginosa assessed as potentiation of imipenem-induced antibacterial activity by measuring […] MIC at 4 ug/ml (reference value: 16 ug/ml)
[12] = system: Enterobacteriaceae; assay: Inhibition of beta lactamase CTX-M-15 in KPC/NDM1 deficient Enterobacteriaceae assessed as potentiation of ceftazidime-induced antibacterial activity by measuring ceftazidime MIC by broth microdilution method
[13] = system: Pseudomonas aeruginosa; assay: Inhibition of beta lactamase in Pseudomonas aeruginosa assessed as potentiation of ceftazidime-induced antibacterial activity by measuring ceftazidime MIC at 4 ug/ml (reference value: 64 ug/ml)
[14] = system: Enterobacteriaceae; assay: Inhibition of beta lactamase CMY-2 in CTX-M-15/CTX-M-14/KPC/NDM1 deficient Enterobacteriaceae assessed as potentiation of ceftazidime-induced antibacterial activity by measuring ceftazidime MIC by broth microdilution method
[15] = system: Enterobacteriaceae; assay: Inhibition of beta lactamase KPC in Enterobacteriaceae assessed as potentiation of ceftazidime-induced antibacterial activity by measuring ceftazidime MIC by broth microdilution method
[16] = system: Enterobacteriaceae; assay: Inhibition of beta lactamase CTX-M-14 in CTX-M-15 deficient Enterobacteriaceae assessed as potentiation of ceftazidime-induced antibacterial activity by measuring ceftazidime MIC by broth microdilution method
[17] = system: Klebsiella pneumoniae; assay: Inhibition of beta lactamase OXA in Klebsiella pneumoniae assessed as potentiation of meropenem-induced antibacterial activity by measuring fold reduction in meropenem MIC
[18] = system: Klebsiella pneumoniae; assay: Inhibition of beta lactamase class C in Klebsiella pneumoniae assessed as potentiation of meropenem-induced antibacterial activity by measuring fold reduction in meropenem MIC
[19] = system: Klebsiella pneumoniae; assay: Inhibition of beta lactamase KPC in Klebsiella pneumoniae assessed as potentiation of meropenem-induced antibacterial activity by measuring fold reduction in meropenem MIC
[20] = system: Enterobacteriaceae; assay: Inhibition of ESBL in Enterobacteriaceae assessed as potentiation of cefepime-induced antibacterial activity by measuring cefepime MIC by broth microdilution method

SMILES: N[C@@H](CN[C@@H](CN[C@@H](CC(=O)O)C(=O)O)C(=O)O)C(=O)O
IC50 [3]: 4000 nM | IC50 [4]: 9600 nM | Kd [5]: 200 nM

SMILES: O=C(Cc1cn2ccsc2n1)NNC(=S)Nc1ccc(OCc2ccccc2)cc1
IC50 [6]: 35 nM

SMILES: O=C(O)C[C@@H]1CC[C@H](NC(=O)Cc2cccs2)B(O)O1
fold change (FC) [7]: 64 | fold change (FC) [8]: 64 | MIC50 [9]: 0.12 µg/mL | MIC90 [9]: 0.5 µg/mL

SMILES: Cn1cc[n+](C[C@@]2(C)[C@H](C(=O)[O-])N3C(=O)C[C@H]3S2(=O)=O)n1
MIC50 [20]: 0.125 µg/mL | MIC90 [20]: 0.5 µg/mL

Further lines, results first:

IC50 [1]: < 19 nM | IC50 [2]: < 19 nM
SMILES: O=C(NOC1CCNC1)[C@@H]1CC2(CC2)[C@@H]2CN1C(=O)N2OS(=O)(=O)O (some centres undefined)

IC50 [1]: < 19 nM | IC50 [2]: < 19 nM
SMILES: NCCONC(=O)[C@@H]1CC2(CC2)[C@@H]2CN1C(=O)N2OS(=O)(=O)O

MIC90 [10]: < 2 µg/mL | MIC90 [11]: 2 µg/mL | MIC90 [12]: < 2 µg/mL | MIC90 [13]: 8 µg/mL | MIC90 [14]: < 2 µg/mL | MIC90 [15]: < 2 µg/mL | MIC90 [16]: < 2 µg/mL
SMILES: NC(=O)[C@@H]1CC[C@@H]2CN1C(=O)N2OS(=O)(=O)O

fold change (FC) [17]: < 1024 | fold change (FC) [18]: < 1024 | fold change (FC) [19]: < 1024
SMILES: NC[C@H]1CC([C@@H]2CC[C@@H]3CN2C(=O)N3OS(=O)(=O)O)=NO1
